Assay results reported in ChEMBL document CHEMBL3621049, “Imidazole derivatives show anticancer potential by inducing apoptosis and cellular senescence” (2014).
Active and inactive are the calls of the source.

Tests used:
Format in all cases: functional, cell-based
OVCAR-3 = experiment: Growth inhibition of human OVCAR3 cells at 10 uM by sulforhodamine B assay
SK-MEL-5 = experiment: Growth inhibition of human SK-MEL-5 cells at 10 uM by sulforhodamine B assay
NCI-H226 = experiment: Growth inhibition of human NCI-H226 cells at 10 uM by sulforhodamine B assay
NCI/ADR-RES = experiment: Growth inhibition of human NCI/ADR-RES cells at 10 uM by sulforhodamine B assay
Malme-3M = experiment: Growth inhibition of human MALME-3M cells at 10 uM by sulforhodamine B assay
UO-31 = experiment: Growth inhibition of human UO31 cells at 10 uM by sulforhodamine B assay
NCI-H322M = experiment: Growth inhibition of human NCI-H322M cells at 10 uM by sulforhodamine B assay
SNB-75 = experiment: Growth inhibition of human SNB75 cells at 10 uM by sulforhodamine B assay
TK-10 = experiment: Growth inhibition of human TK10 cells at 10 uM by sulforhodamine B assay
SK-OV-3 = experiment: Growth inhibition of human SKOV3 cells at 10 uM by sulforhodamine B assay
HOP-62 = experiment: Growth inhibition of human HOP62 cells at 10 uM by sulforhodamine B assay
SW-620 = experiment: Growth inhibition of human SW620 cells at 10 uM by sulforhodamine B assay
A498 = experiment: Growth inhibition of human A498 cells at 10 uM by sulforhodamine B assay
COLO 205 = experiment: Growth inhibition of human COLO205 cells at 10 uM by sulforhodamine B assay
HCT-15 = experiment: Growth inhibition of human HCT15 cells at 10 uM by sulforhodamine B assay
DU-145 = experiment: Growth inhibition of human DU145 cells at 10 uM by sulforhodamine B assay
MDA-MB-435 = experiment: Growth inhibition of human MDA-MB-435 cells at 10 uM by sulforhodamine B assay
Hs-578T = experiment: Growth inhibition of human Hs 578T cells at 10 uM by sulforhodamine B assay
SR = experiment: Growth inhibition of human SR cells at 10 uM by sulforhodamine B assay
HOP-92 = experiment: Growth inhibition of human HOP92 cells at 10 uM by sulforhodamine B assay
UACC-62 = experiment: Growth inhibition of human UACC62 cells at 10 uM by sulforhodamine B assay
HT-29 = experiment: Growth inhibition of human HT-29 cells at 10 uM by sulforhodamine B assay
NCI-H23 = experiment: Growth inhibition of human NCI-H23 cells at 10 uM by sulforhodamine B assay
OVCAR-8 = experiment: Growth inhibition of human OVCAR8 cells at 10 uM by sulforhodamine B assay
MOLT-4 = experiment: Growth inhibition of human MOLT4 cells at 10 uM by sulforhodamine B assay
IGROV-1 = experiment: Growth inhibition of human IGROV1 cells at 10 uM by sulforhodamine B assay
M14 = experiment: Growth inhibition of human M14 cells at 10 uM by sulforhodamine B assay
PC-3 = experiment: Growth inhibition of human PC3 cells at 10 uM by sulforhodamine B assay
KM12 = experiment: Growth inhibition of human KM12 cells at 10 uM by sulforhodamine B assay
HCC 2998 = experiment: Growth inhibition of human HCC2998 cells at 10 uM by sulforhodamine B assay
SK-MEL-2 = experiment: Growth inhibition of human SK-MEL-2 cells at 10 uM by sulforhodamine B assay
SF-295 = experiment: Growth inhibition of human SF295 cells at 10 uM by sulforhodamine B assay
SF-268 = experiment: Growth inhibition of human SF268 cells at 10 uM by sulforhodamine B assay
CCRF-CEM = experiment: Growth inhibition of human CCRF-CEM cells at 10 uM by sulforhodamine B assay
RXF 393 = experiment: Growth inhibition of human RXF393 cells at 10 uM by sulforhodamine B assay
MDA-MB-468 = experiment: Growth inhibition of human MDA-MB-468 cells at 10 uM by sulforhodamine B assay
SF-539 = experiment: Growth inhibition of human SF539 cells at 10 uM by sulforhodamine B assay
OVCAR-5 = experiment: Growth inhibition of human OVCAR5 cells at 10 uM by sulforhodamine B assay
HL-60(TB) = experiment: Growth inhibition of human HL-60(TB) cells at 10 uM by sulforhodamine B assay
SN12C = experiment: Growth inhibition of human SN12C cells at 10 uM by sulforhodamine B assay
MCF7 = experiment: Growth inhibition of human MCF7 cells at 10 uM by sulforhodamine B assay
UACC-257 = experiment: Growth inhibition of human UACC257 cells at 10 uM by sulforhodamine B assay
A549 = experiment: Growth inhibition of human A549/ATCC cells at 10 uM by sulforhodamine B assay
T47D = experiment: Growth inhibition of human T47D cells at 10 uM by sulforhodamine B assay
ACHN = experiment: Growth inhibition of human ACHN cells at 10 uM by sulforhodamine B assay
NCI-H522 = experiment: Growth inhibition of human NCI-H522 cells at 10 uM by sulforhodamine B assay
786-0 = experiment: Growth inhibition of human 786-0 cells at 10 uM by sulforhodamine B assay
CAKI-1 = experiment: Growth inhibition of human Caki1 cells at 10 uM by sulforhodamine B assay
K562 = experiment: Growth inhibition of human K562 cells at 10 uM by sulforhodamine B assay
LOX IMVI = experiment: Growth inhibition of human LOXIMVI cells at 10 uM by sulforhodamine B assay
OVCAR-4 = experiment: Growth inhibition of human OVCAR4 cells at 10 uM by sulforhodamine B assay
BT-549 = experiment: Growth inhibition of human BT549 cells at 10 uM by sulforhodamine B assay
U-251 = experiment: Growth inhibition of human U251 cells at 10 uM by sulforhodamine B assay
SK-MEL-28 = experiment: Growth inhibition of human SK-MEL-28 cells at 10 uM by sulforhodamine B assay
HCT-116 = experiment: Growth inhibition of human HCT116 cells at 10 uM by sulforhodamine B assay
MDA-MB-231 = experiment: Growth inhibition of human MDA-MB-231 cells at 10 uM by sulforhodamine B assay
SNB-19 = experiment: Growth inhibition of human SNB19 cells at 10 uM by sulforhodamine B assay
RPMI-8226 = experiment: Growth inhibition of human RPMI8226 cells at 10 uM by sulforhodamine B assay
NCI-H460 = experiment: Growth inhibition of human NCI-H460 cells at 10 uM by sulforhodamine B assay

Measured: growth inhibition (GI)

COc1cc(-c2nc(-c3ccccc3)c(-c3ccccc3)n2C2CCCCC2)ccc1OC1CCCC1
active: all assays above

COc1ccc(-c2nc(-c3ccccc3)c(-c3ccccc3)n2C2CC2)cc1OC1CCCCC1
active: all assays above
